The values below come from US10662205B2, “Cyclic boronic acid ester derivatives and therapeutic uses thereof” (priority 2014, dated 2020).

The test system of assay [1] is ec308 (SHV-5). Description: Tigemonam MIC of test strain.
The test system of a further assay is ECL1002. Nature of the assay: Tigemonam MIC of test strain.
For assay [2], the system named is KP1005 (CTX-M-14). Description: Tigemonam MIC of test strain.
In assay [3] the test system is KP1009 (CTX-M-15). Nature of the assay: Tigemonam MIC of test strain.
The test system of assay [4] is EC1010 (CMY-6). Description: Tigemonam MIC of test strain.
Assay [5] has as its system KP1010 (SHV-12). Nature of the assay: Tigemonam MIC of test strain.
For assay [6], the system named is ec302 (TEM-10). Description: Tigemonam MIC of test strain.
In assay [7] the test system is KP1004 (KPC-2). Nature of the assay: organism not typed. It counts as cell-based. As to conditions: read-out: Aztreonam MIC.
In assay [8] the test system is KP1010 (SHV-12). Description: Aztreonam MIC of test strain. It counts as cell-based.
Assay [9] has as its system KP1005 (CTX-M-14). Description: organism not typed. It counts as cell-based. The following applies: read-out: Aztreonam MIC.
In assay [10] the test system is ec308 (SHV-5). Nature of the assay: Aztreonam MIC of test strain. It counts as cell-based.
Assay [11] relates to EC1010 (CMY-6). Nature of the assay: Aztreonam MIC of test strain. It counts as cell-based.
Assay [12] deals with ec302 (TEM-10). Nature of the assay: Aztreonam MIC of test strain. It counts as cell-based.
In assay [13] the test system is KP1009 (CTX-M-15). Description: organism not typed. It counts as cell-based. The following applies: read-out: Aztreonam MIC.
The subject of a further assay is PAM1154/KPC-2. Description: Biapenem MIC. It counts as cell-based. As to conditions: Pseudomonas aeruginosa; PAM1154 with KPC-2 plasmid. On the procedure: (§1) Efflux of BLIs from Pseudomonas aeruginosa by the MexAB-OprM efflux pump was also evaluated. The plasmid expressing the gene encoding KPC-2 was introduced into two strains of P. aeruginosa, PAM1032 and PAM1154 that overexpressed or lacked MexAB-OprM, respectively. Due to expression of KPC-2 both strains became resistant to biapenem. […] Potency of BLIs to potentiate biapenem in these strains was determined. […] The ratio of MPC64 values for each BLI in PAM1032/KPC-2 (efflux proficient) and PAM1154/KPC-2 (efflux deficient) was determined to generate the Efflux Index (EI).

The subject of the next assay is PAM1032/KPC-2. Description: Biapenem MIC. The following applies: Pseudomonas aeruginosa; PAM1032 with KPC-2 plasmid. It counts as cell-based. Here is the method: as §1
The subject of the next assay is KP1086 (OXA-48). Nature of the assay: Biapenem MIC of test strain. As to conditions: read-out: Biapenem MIC.
Assay [14] concerns KP1004 (KPC-2). Description: Biapenem MIC of test strain. The following applies: read-out: Biapenem MIC.

`CC1(C)[C@H](NC(=O)/C(=N\OCC(=O)O)c2csc(N)n2)C(=O)N1OS(=O)(=O)O` [Tigemonam]: the “Tigemonam MIC” value in the assay with ec308 (SHV-5) [1] was greater than 64 µg/mL; with ECL1002, 32 µg/mL; with KP1005 (CTX-M-14) [2] it was greater than 64 µg/mL; in the assay with KP1009 (CTX-M-15) [3] it was greater than 64 µg/mL; in the assay on EC1010 (CMY-6) [4] it was 16 µg/mL; in the assay with KP1010 (SHV-12) [5], greater than 64 µg/mL. Further, in the assay on ec302 (TEM-10) [6], the “Tigemonam MIC” value is greater than 64 µg/mL.

Consider `C[C@H]1[C@H](NC(=O)/C(=N\OC(C)(C)C(=O)O)c2csc(N)n2)C(=O)N1S(=O)(=O)O` [Aztreonam], for which the MIC was greater than 128 µg/mL in the assay on KP1004 (KPC-2) [7]; 64 µg/mL in the assay with KP1010 (SHV-12) [8]; greater than 128 µg/mL in the assay with KP1005 (CTX-M-14) [9]; greater than 128 µg/mL in the assay with ec308 (SHV-5) [10]; greater than 128 µg/mL in the assay on EC1010 (CMY-6) [11]; 128 µg/mL with ec302 (TEM-10) [12]. Also, the MIC with KP1009 (CTX-M-15) [13] is greater than 128 µg/mL.

Regarding `C[C@@H](O)[C@H]1C(=O)N2C(C(=O)[O-])=C(SC3Cn4cnc[n+]4C3)[C@H](C)[C@H]12` (stereo partly drawn) [Biapenem], the minimum inhibitory concentration (MIC) was 32 µg/mL with PAM1154/KPC-2, 32 µg/mL with PAM1032/KPC-2, 16 µg/mL with KP1086 (OXA-48) and 32 µg/mL with KP1004 (KPC-2) [14].

The term MIC denotes the least concentration at which growth counts as inhibited.
